Experimental data reported in patent US20200087284A1, “[4-(PHENYLSULFONYL)PIPERAZIN-1-YL](1H-1, 2, 3-TRIAZOL-4-YL)METHANONES” (priority 2016, published 2020).

Target: T1, recombinant human AKR1C3 (Homo sapiens, UniProt P42330)
T1 construct: GST (cleaved yes); made in house; host or cells: E. coli
T1 sequence (P42330 1-323): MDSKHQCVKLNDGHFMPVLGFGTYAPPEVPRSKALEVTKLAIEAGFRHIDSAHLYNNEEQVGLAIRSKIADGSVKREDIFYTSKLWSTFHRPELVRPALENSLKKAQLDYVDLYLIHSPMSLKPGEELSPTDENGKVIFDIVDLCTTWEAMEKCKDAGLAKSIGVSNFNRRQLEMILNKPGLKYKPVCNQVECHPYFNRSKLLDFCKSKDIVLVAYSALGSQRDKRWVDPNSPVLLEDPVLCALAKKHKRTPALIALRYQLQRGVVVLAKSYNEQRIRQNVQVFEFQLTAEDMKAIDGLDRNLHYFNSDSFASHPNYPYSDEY
Assay: AKR1C3-inhibitory activity assay (Coumberone to Coumberol fluorescence)
Assay type: biochemical
Settings: recombinant human AKR1C3, 10 μM NADPH, 0.3 μM Coumberone, 22° C., typically 90 min
Procedure: AKR1C3-Inhibitory Activity Assay
The AKR1C3-inhibitory activity of the substances of the present invention was measured in the AKR1C3 assay described in the paragraphs below.
Essentially, the enzyme activity is measured by quantification of the generation of Coumberol from Coumberone (Halim et al. J. AM. CHEM. SOC. 2008, 130:14123-14128 and Yee et al. Proc. Natl. Acad. Sci. USA 2006, 103:13304-13309). In this test, the increase of the highly fluorescent Coumberol by NADPH- (nicotinamide adenine dinucleotide phosphate)-dependent reduction of the non-fluorescent Coumberone by AKR1C3 was determined.
The enzyme used was recombinant human AKR1C3 (Aldo-keto reductase family 1 member C3; GenBank Accession No. NM_003739). This was expressed in E. coli as GST (glutathione S transferase) fusion protein and purified by glutathione Sepharose affinity chromatography. The GST was removed by digestion with thrombin and subsequent size exclusion chromatography (Dufort, I., Rheault, P., Huang, X F., Soucy, P., and Luu-The, V., Endocrinology 140, 568-574 (1999)).
For the assay, 50 nI of a 100-fold concentrated solution of the test substance in DMSO were pipetted into a black low-volume 384-well microtiter plate (Greiner Bio-One, Frickenhausen, Germany), 2.5 μl of a solution of AKR1C3 in assay buffer [50 mM potassium phosphate buffer pH 7, 1 mM DTT, 0.0022% (w/v) Pluronic F-127, 0.01% BSA (w/v) and protease inhibitor cocktail (Complete, EDTA-free Protease Inhibitor Cocktail from Roche)] were added and the mixture was incubated for 15 min to allow pre-binding of the substances to the enzyme prior to the enzyme reaction. The enzyme reaction was then started by addition of 2.5 μl of a solution of NADPH (20 μM→final concentration in 5 μl of assay volume is 10 μM) and Coumberone (0.6 μM→final concentration in 5 μl of assay volume is 0.3 μM) in assay buffer, and the resulting mixture was incubated at 22° C. for the reaction time of typically 90 min. The concentration of the AKR1C3 and the reaction time was adapted to the respective activity of the enzyme preparation and adjusted such that the assay was carried out in the linear range. Typical AKR1C3 concentrations were in the region of 1 nM. The reaction was stopped by addition of 2.5 μl of a stop solution consisting of 3 μM EM-1404 as inhibitor (U.S. Pat. No. 6,541,463) in 50 mM HEPES pH7.5 (3 μM EM-1404→final concentration in 7.5 μl of assay volume is 1 μM). The fluorescence of the Coumberole was then measured at 520 nm (excitation at 380 nm) using a suitable measuring instrument (Pherastar from BMG Labtechnologies). The intensity of the fluorescence was used as a measure of the amount of Coumberole formed and thus of the enzyme activity of AKR1C3. The data were normalized (enzyme reaction without inhibitor=0% inhibition; all other assay components, but no enzyme=100% inhibition).

| SMILES | IC50 [nM] |
| --- | --- |
| Cc1ccc(S(=O)(=O)N2C[C@H](C)N(C(=O)c3cnn[nH]3)C[C@H]2C)cc1 [Example 1, {(2S,5R)-2,5-dimethyl-4-[(4-methylphenyl)sulfonyl]piperazin-1-yl}(1H-1,2,3-triazol-5-yl)methanone] | 6 |
| C[C@@H]1CN(C(=O)c2cnn[nH]2)[C@@H](C)CN1S(=O)(=O)c1ccc(F)cc1F [Example 2, {(2S,5R)-4-[(2,4-difluorophenyl)sulfonyl]-2,5-dimethylpiperazin-1-yl}(1H-1,2,3-triazol-5-yl)methanone] | 3 |
| Cc1ccc(S(=O)(=O)N2C[C@@H](C)N(C(=O)c3c[nH]nn3)[C@@H](C)C2)cc1 [Example 3, {(2R,6S)-2,6-dimethyl-4-[(4-methylphenyl)sulfonyl]piperazin-1-yl}(1H-1,2,3-triazol-4-yl)methanone] | 24 |
| C[C@@H]1CN(S(=O)(=O)c2ccc(F)cc2F)C[C@H](C)N1C(=O)c1c[nH]nn1 [Example 4, {(2R,6S)-4-[(2,4-difluorophenyl)sulfonyl]-2,6-dimethylpiperazin-1-yl}(1H-1,2,3-triazol-4-yl)methanone] | 12 |
| C[C@@H]1CN(S(=O)(=O)c2ccc(C(F)(F)F)cc2)C[C@H](C)N1C(=O)c1c[nH]nn1 [Example 5, [(2R,6S)-2,6-dimethyl-4-{[4-(trifluoromethyl)phenyl]sulfonyl}piperazin-1-yl](1H-1,2,3-triazol-4-yl)methanone] | 107 |
| Cc1ccc(S(=O)(=O)N2CCN(C(=O)c3cnn[nH]3)CC2(C)C)cc1 [Example 6, {3,3-dimethyl-4-[(4-methylphenyl)sulfonyl]piperazin-1-yl}(1H-1,2,3-triazol-5-yl)methanone] | 8 |
| CCc1ccc(S(=O)(=O)N2CCN(C(=O)c3cnn[nH]3)CC2(C)C)cc1 [Example 7, {4-[(4-ethylphenyl)sulfonyl]-3,3-dimethylpiperazin-1-yl}(1H-1,2,3-triazol-5-yl)methanone] | 8 |
| CC1(C)CN(C(=O)c2cnn[nH]2)CCN1S(=O)(=O)c1ccc(F)cc1F [Example 8, {4-[(2,4-difluorophenyl)sulfonyl]-3,3-dimethylpiperazin-1-yl}(1H-1,2,3-triazol-5-yl)methanone] | 45 |
| CC1(C)CN(C(=O)c2cnn[nH]2)CCN1S(=O)(=O)c1ccc(F)cc1Cl [Example 9, {4-[(2-chloro-4-fluorophenyl)sulfonyl]-3,3-dimethylpiperazin-1-yl}(1H-1,2,3-triazol-5-yl)methanone] | 11 |
